# Laboratory results from patent publication US20200315950A1, “COMPOSITION FOR MODULATING THE GENES RESPONSIBLE FOR GENERAL SKIN FUNCTIONS, METHOD FOR MODULATING THE EXPRESSION OF GENES RESPONSIBLE FOR GENERAL SKIN FUNCTIONS, AND USE OF A PLANT EXTRACT” (Natura Cosmeticos S.A., priority 2016, published 2020).
# Where “and” joins values, the source holds several entries; their conditions need not be identical. Equal values may be shown once.
# Test system: 180 genes in skin explants
# Test: Large scale gene expression profile assay (PCR array) in skin explants
# Format: cell-based, human
# Conditions: eyelid skin explants, 2 mg/cm^2 topical, 24 hours, threshold 30% increase or reduction
# Experimental: A large scale gene expression profile assay (by PCR array) was performed of 180 genes in skin explants obtained subsequent to blepharoplasty and subjected to individual treatments with the present invention.
# Initially, skin explants were obtained from the eyelids of females between 45 and 55 years of age, three (3) different donors of each age. The explants were split into halves and immediately inserted, in triplicate from each donor, into a culture medium and kept for 24 hours (half 1) and 72 hours (half 2) in a wet environment, at 37° C., 5% CO2. […]
# Half (1) was collected and subjected to total RNA extraction. The quality of the extracted RNA was qualitatively (Bioanalyzer microcapillary electrophoresis) and quantitatively (Nanodrop spectrophotometer) assessed. […] The ΔCt values for the GAPDH (glyceraldehyde-3-phosphate dehydrogenase) reference gene and target gene were calculated by subtracting from each other the values for the experimental groups. […] Lastly, a relative quantification of the target genes was determined by using the equation: RQ=2−ΔΔCt. […] The statistical significance was assessed by using the t test followed by the Benjamini-Hochberg method (FDR—false discovery rate), which p-value<0.05 was considered significant. […]
row,Molecule,number of genes modulated as compared to the untreated control
1,"C/C=C/C=C\CC/C=C/C(=O)NCC(C)C [spilanthol sample, spilanthol]",163 genes
2,hyaluronic acid [Hyaluronic Acid sample],162 genes and 146 genes
